Measurements reported in the OligoGym collection.
Values joined by “and” are separate entries in the source; they are usually repeats but may differ in a detail not shown here. Identical values can stand only once. HELM strings list units from the 5' end as sugar, base in round brackets, then linkage (d deoxyribose, r ribose, m 2'-O-methyl, p phosphodiester). Methylation of C is not given here. [moe] = 2'-O-(2-methoxyethyl) (MOE); [cEt] = constrained ethyl (cEt); [sp] = phosphorothioate linkage

Molecular target: HBV
Conditions: ASO

Substance | target mRNA inhibition (HepG2, 0.07 µM) | target mRNA inhibition (HepG2, 0.0092593 µM) [%] | target mRNA inhibition (HepG2, 0.0277778 µM) [%] | target mRNA inhibition (HepG2, 0.0833333 µM) [%] | target mRNA inhibition (HepG2, 0.25 µM) [%]
RNA1{[moe](C)[sp].[moe](A)[sp].[moe](C)[sp].[moe](T)[sp].[moe](A)[sp].d(G)[sp].d(T)[sp].d(A)[sp].d(A)[sp].d(A)[sp].d(C)[sp].d(T)[sp].d(G)[sp].d(A)[sp].[moe](G)[sp].[moe](C)[sp].[moe](C)}$$$$V2.0 | 71% and 62% | – | – | – | –
RNA1{[moe](A)[sp].[moe](C)[sp].[moe](T)[sp].d(G)[sp].d(G)[sp].d(A)[sp].d(G)[sp].d(C)[sp].d(C)[sp].d(A)[sp].d(C)[sp].d(C)[sp].d(A)[sp].[cEt](G)[sp].[cEt](C)[sp].[cEt](A)}$$$$V2.0 | 64% and 73% | – | – | – | –
RNA1{[moe](C)[sp].[moe](G)[sp].[moe](C)[sp].[moe](A)[sp].[moe](G)[sp].[moe](T)[sp].d(A)[sp].d(T)[sp].d(G)[sp].d(G)[sp].d(A)[sp].d(T)[sp].d(C)[sp].d(G)[sp].d(G)[sp].[moe](C)[sp].[moe](A)}$$$$V2.0 | 83% and 70% | 10 | 35 | 44 | 76
RNA1{[moe](G)[sp].[moe](A)[sp].[moe](A)[sp].[moe](G)[sp].[moe](C)[sp].d(G)[sp].d(A)[sp].d(A)[sp].d(G)[sp].d(T)[sp].d(G)[sp].d(C)[sp].d(A)[sp].d(C)[sp].[moe](A)[sp].[moe](C)[sp].[moe](G)}$$$$V2.0 | 80% and 58% | – | – | – | –
RNA1{[moe](A)[sp].[moe](A)[sp].d(G)[sp].d(C)[sp].d(G)[sp].d(A)[sp].d(A)[sp].d(G)[sp].d(T)[sp].d(G)[sp].d(C)[sp].[moe](A)[sp].[moe](C)[sp].[moe](A)[sp].[moe](C)[sp].[moe](G)[sp].[moe](G)}$$$$V2.0 | 88% and 80% | 11 | 27 | 58 | 80
RNA1{[moe](A)[sp].[moe](C)[sp].[moe](T)[sp].[moe](A)[sp].[moe](G)[sp].d(T)[sp].d(A)[sp].d(A)[sp].d(A)[sp].d(C)[sp].d(T)[sp].d(G)[sp].d(A)[sp].d(G)[sp].[moe](C)[sp].[moe](C)}$$$$V2.0 | 64% and 66% | – | – | – | –
RNA1{[moe](C)[sp].[moe](T)[sp].[moe](G)[sp].[moe](G)[sp].d(A)[sp].d(G)[sp].d(C)[sp].d(C)[sp].d(A)[sp].d(C)[sp].d(C)[sp].d(A)[sp].d(G)[sp].[moe](C)[sp].[moe](A)[sp].[moe](G)}$$$$V2.0 | 57% and 60% | – | – | – | –
RNA1{[moe](G)[sp].[cEt](G)[sp].d(A)[sp].d(G)[sp].d(T)[sp].d(T)[sp].d(C)[sp].d(C)[sp].d(G)[sp].d(C)[sp].d(A)[sp].d(G)[sp].[cEt](T)[sp].[moe](A)[sp].[cEt](T)[sp].[moe](G)}$$$$V2.0 | 78% and 87% | 12 | 49 | 79 | 89
RNA1{[moe](G)[sp].[moe](A)[sp].d(G)[sp].d(T)[sp].d(T)[sp].d(C)[sp].d(C)[sp].d(G)[sp].d(C)[sp].d(A)[sp].d(G)[sp].[moe](T)[sp].[moe](A)[sp].[moe](T)[sp].[moe](G)[sp].[moe](G)[sp].[moe](A)}$$$$V2.0 | 78% and 66% | – | – | – | –
RNA1{[moe](G)[sp].[cEt](C)[sp].[cEt](A)[sp].d(T)[sp].d(A)[sp].d(G)[sp].d(C)[sp].d(A)[sp].d(G)[sp].d(C)[sp].d(A)[sp].d(G)[sp].d(G)[sp].[cEt](A)[sp].[cEt](T)[sp].[moe](G)}$$$$V2.0 | 67% and 71% | – | – | – | –
RNA1{[moe](G)[sp].[moe](T)[sp].[moe](G)[sp].[moe](A)[sp].d(A)[sp].d(G)[sp].d(C)[sp].d(G)[sp].d(A)[sp].d(A)[sp].d(G)[sp].d(T)[sp].d(G)[sp].[moe](C)[sp].[moe](A)[sp].[moe](C)}$$$$V2.0 | 62% and 71% | – | – | – | –
RNA1{[moe](G)[sp].[moe](T)[sp].[moe](T)[sp].d(C)[sp].d(C)[sp].d(G)[sp].d(C)[sp].d(A)[sp].d(G)[sp].d(T)[sp].d(A)[sp].d(T)[sp].[moe](G)[sp].[moe](G)[sp].[moe](A)[sp].[moe](T)}$$$$V2.0 | 51% and 65% | – | – | – | –
